Experimental data from patent US6296873A, “Zero-order sustained release delivery system for carbamazephine derivatives” (Yissum Research Development Company of the Hebrew …, priority 2000, dated 2001).
Values after ≈ are worked out from the molar mass of the structure shown. Read-outs that look alike come from different tables or passages of the source.

Experiments:
[1] = Crystal morphology and structure of carbamazepine in the gel layer of hydrated tablets (DSC, X-ray, SEM); type: physicochemical; details: for SEM: form of carbamazepine in the gel layer: 50% Methocel K4M
Protocol: Gel layers of the tablets were analyzed. Tablets were hydrated using the USP Basket Method I under the same conditions described in the dissolution studies. At various time intervals the tablets were removed from the baskets, the gel layer was scratched and dried at room temperature for at least 24 hours. The gel layer was analyzed by DSC, X-ray powder diffraction and scanning electron microscopy (SEM). Used analytical methods are described in Example 4.
Tablets containing 50% carbamazepine and 50% Methocel K4M were prepared and hydrated in medium containing 1% SDS in water, using tablet dissolution tester at the same conditions used for measurements of the release rate of the drug.
At various time intervals the tablets were removed and the gel layer was peeled, dried at room temperature and analyzed by DSC, X-ray and SEM. For comparison, a suspension containing carbamazepine in 1% SDS water solution was prepared and the crystals obtained were analyzed by DSC, X-ray and SEM.
(§1) The thermal analysis of the samples was performed using a Differential Scanning Calorimeter (DSC, Mettler TA4000 with measuring cell DSC 30E, Switzerland). Samples were measured into aluminum pans. Lids were crimped and holes were made in lids in order to allow dehydration of samples. The thermal behavior of the samples was studied under nitrogen purge at heating rates of 10° C. min^-1 over a temperature range of 0° C. to 250° C. When the glass transition temperature of HPMC was examined the heating rate was 0.5° C. min^-1.
(§2) X-ray powder diffraction of the samples was recorded by Philips automated diffractometer using Cu-K α radiation (40 kV, 35 mA) at a scanning rate of 0.5° per 20 min^-1.
Samples of hydrated tablets were sliced across the gel layer. The samples were washed and then treated with increasing concentration of ethanol, 5 minutes at each concentration, for dehydration. […] Scanning electron photomicrographs were recorded using a Philips 505 SEM, applying voltage of […]. Samples of powders were coated and analyzed under the same conditions described for the hydrated tablets.

[2] = Degree of conversion of anhydrous carbamazepine to carbamazepine dihydrate in suspension (DSC); type: physicochemical
Protocol: Suspensions of carbamazepine (5% w/v) containing water or 1% SDS aqueous solution were shaken at 37° C. with stirring (50 rpm). Samples from the sediment were taken after 1 day, dried at room temperature for 2 days, and analyzed by differential scanning calorimetry, X-ray powder diffraction and scanning electron microscopy (SEM). Carbamazepine anhydrous powder was analyzed using the same methods.
(§3) Analysis of carbamazepine in HPMC solutions and in dry mixtures of HPMC was performed. Suspension of carbamazepine (5% w/v) containing 1% SDS aqueous solution with Methocel K4M at different concentrations, namely 0.5, 1, 2, 5 and 10 mg,/ml were shaken for 1-7 days at 37° C. with stirring (50 rpm). Samples from the sediment were taken, at various time intervals, dried at room temperature for 2 days and analyzed by DSC, X-ray powder diffraction and SEM.
The degree of conversion of anhydrous carbamazepine to the dihydrate form, measured by DSC, was calculated according to the ratio obtained from the dehydration enthalpies of carbamazepine suspended in 1% SDS aqueous Methocel solution and 1% SDS aqueous solution without Methocel. Dry mixtures containing different ratios of HPMC (Methocel K4M) and carbamazepine were also analyzed by DSC in order to investigate the influence of HPMC on the polymorphic transformation of carbamazepine.
as §1

[3] = anhydrous carbamazepine; cited from earlier work
[4] = Solubility of carbamazepine in medium; type: physicochemical; details: read-out: Drug solubility
Source text: Results are seen in FIG. 12.

[5] = Crystal morphology and structure of carbamazepine from HPMC solutions (SEM, X-ray diffraction); type: physicochemical; details: for X-ray diffraction: crystal form of carbamazepine: 1 day
Protocol: as §3, §2
Samples of hydrated tablets were sliced across the gel layer. The samples were washed and then treated with increasing concentration of ethanol, 5 minutes at each concentration, for dehydration. In order to complete the dehydration the samples were transferred in solution of freon 113:ethanol with increasing concentrations of freon (25, 50, 75, 100%). The samples with 100% freon were incubated in the hood for 0.5 hour. The cross-sectioned tablets were mounted on stubs and coated with a polaron sputter coater, Model E5100. The film thickness obtained was approximately 75 Å. Scanning electron photomicrographs were recorded using a Philips 505 SEM, applying voltage of […]. Samples of powders were coated and analyzed under the same conditions described for the hydrated tablets.

[6] = after 1 hour, in the presence of water; cited from earlier work

For `NC(=O)N1c2ccccc2C=Cc2ccccc21` [carbamazepine], the “SEM: form of carbamazepine in the gel layer” value ([1]; 6 hours of hydration) was “transformed to an amorphous form”, the “SEM: form of carbamazepine in the gel layer” value ([1]; 20 hours hydration) was “showed the same behavior” and the “Transformation of carbamazepine to the dihydrate form in the gel layer” value ([1]; hydrated tablets containing 50% polymer, 6 and 20 hours) was “inhibited”. The “Degree of conversion of carbamazepine to carbamazepine dihydrate” value (“Degree of conversion of carbamazepine” below) ([2]; 5 mg/ml Methocel K4M, time 1 day) was 0%, the “Degree of conversion of carbamazepine” value ([2]; 5 mg/ml Methocel K4M, time 2 days) was 0.97% and the “Degree of conversion of carbamazepine” value ([2]; 5 mg/ml Methocel K4M, time 3 days) was 8.8%. For the same compound, the “Degree of conversion of carbamazepine” value ([2]; 5 mg/ml Methocel K4M, time 4 days) was 21.5%, the “Degree of conversion of carbamazepine” value ([2]; 5 mg/ml Methocel K4M, time 7 days) was 100% and the “Degree of conversion of carbamazepine” value ([2]; Methocel K4M 0 mg/ml, 24 hours, 1% SDS, 37° C.) was 100%. For the same compound, the “Degree of conversion of carbamazepine” value ([2]; Methocel K4M 0.5 mg/ml, 24 hours, 1% SDS, 37° C.) was 77.0%, the “Degree of conversion of carbamazepine” value ([2]; Methocel K4M 1 mg/ml, 24 hours, 1% SDS, 37° C.) was 23.1% and the “Degree of conversion of carbamazepine” value ([2]; Methocel K4M 2 mg/ml, 24 hours, 1% SDS, 37° C.) was 0%. For the same compound, the “Degree of conversion of carbamazepine” value ([2]; Methocel K4M 5 mg/ml, 24 hours, 1% SDS, 37° C.) was 0%, the “Degree of conversion of carbamazepine” value ([2]; Methocel K4M 10 mg/ml, 24 hours, 1% SDS, 37° C.) was 0% and the “Transformation of carbamazepine to dihydrate” value ([2]; after 7 days, all examined Methocel K4M concentrations) was “transformed completely to dihydrate”. The “Conversion of anhydrous carbamazepine to dihydrate (DSC thermograms)” value ([2]; suspended in water, without HPMC) was “completely converted to dihydrate”, the Solubility in water [3] was “practically insoluble in water” and the solubility ([4]; 0.5% sds in water) was 1470 µg/mL (≈ 6.21 mM). The solubility ([4]; 1% sds in water) was 3300 µg/mL (≈ 14 mM), the “X-ray diffraction: crystal form of carbamazepine” value ([5]; 1 mg/ml Methocel K4M solution) was “mixture of carbamazepine and carbamazepine dihydrate crystals” and the “X-ray diffraction: crystal form of carbamazepine” value ([5]; 10 mg/ml Methocel K4M solution) was “solely the anhydrous form”. The “SEM: appearance of carbamazepine crystals from HPMC solutions” value ([5]; 1, 5 or 10 mg/ml HPMC, 1 and 7 days) was “appear to be amorphous” and the “Conversion to carbamazepine dihydrate complete” value [6] was 95%.
